Residues, ends and D or L forms follow the SMILES beside them.
Experiments:
[1] = Toxicity (experimentally proved)
[2] = system: patients with diabetes mellitus; test: Clinical application in patients with diabetes mellitus (Example 8); format: in vivo, human; details: for blood glucose level on an empty stomach: 10 μg i.m. 10 days
Experimental: The investigation was carried out in 36 patients aged from 16 to 83 years (7 men, 29 women). In 23 patients there was diagnosed type 1 diabetes, in 13 patients—type 2 diabetes. The disease duration varied from 1 year to 30 years. 32 patients received insulin. The majority of the patients suffering diabetes mellitus entered the hospital decompensated. Blood glucose level in these patients on an empty stomach oscillated from […]; the glycosylated haemoglobin—from 7.8 to 12.7%. All the patients were prescribed a rigid diet. All the patients were stratified randomly into 2 groups, with respect to age, sex, duration and stage of the disease (Table 7). Alongside with standard method of treatment 16 patients were prescribed Lys-Glu-Asp-Trp-NH2 [SEQ ID NO:1] tetrapeptide in dose of 10 μg (in 1 ml of 0.9% NaCl solution) intramuscularly once a day for 10 days. 4 patients suffering type 2 diabetes mellitus were prescribed together with standard treatment course Lys-Glu-Asp-Trp-NH2 [SEQ ID NO:1] tetrapeptide in dose of 100 μg (1 tablet) twice a day before meals during 10 days. Patients of the control group were administered with 1 ml of 0.9% of NaCl solution as a placebo following the same scheme.

[3] = system: rats with alloxan diabetes; test: Insulin effect on blood glucose level in alloxan diabetes rats after tetrapeptide course (Example 7); format: in vivo, rat
Experimental: The study was conducted on 13 male rats, enrolled in the previous trial (treatment variant—28 days after completion of Lys-Glu-Asp-Trp-NH2 [SEQ ID NO:1] tetrapeptide administration). 8 healthy rats of the similar body weight constituted a separate group. All the animals were administered intravenously with insulin (0.3 units) and glucose concentration in their blood was estimated hereafter.

[4] = system: rats with alloxan diabetes; test: Glucose tolerance test (sugar curve) in alloxan diabetes rats (Example 6); format: in vivo, rat; details: for glucose concentration in blood, glucose tolerance test: in mg/dL
Experimental: The study was conducted on 13 male rats, enrolled in the previous tests (treatment variants—44 days after completion of tetrapeptide Lys-Glu-Asp-Trp-NH2 [SEQ ID NO:1] administration). 7 healthy rats with the same body weight constituted a separate group. All the animals were administered intravenously with 1 ml of 2% glucose solution, after that glucose concentration in their blood was estimated.

[5] = system: rats with alloxan diabetes; test: Tetrapeptide in different doses on the course of alloxan diabetes in rats (Example 4); format: in vivo, rat; details: for increase in the blood glucose level as compared to the controls: dose of 1 μg; for decrease of glucose level: dose of 10 μg
Experimental: The study was performed on 23 white mongrel male rats weighing on average […]. All the animals were subject to single intravenous administration of 1 ml of alloxan (“Spofa”) solution in dose of […].
Then the animals were divided at random into 3 groups. Control animals were intraperitoneally administered with 0.3 ml of 0.9% NaCl solution once a day. Rats of the second and third group were administered with tetrapeptide Lys-Glu-Asp-Trp-NH2 [SEQ ID NO:1] in dose of 1 μg (in 0.1 ml of 0.9% NaCl solution) and 10 μg (in 1.0 ml of 0.9% NaCl solution) per rat during 7 days.

[6] = system: rats with alloxan diabetes; test: Insulin level in blood of alloxan diabetes rats (Example 5); format: in vivo, rat
Experimental: The experiment was held on 18 white mongrel rats weighing an average 375±35 g. After the estimation of the blood glucose level all the animals were divided at random into 2 groups. Then all the animals were subjected to single intravenous injection with 1 ml of alloxan solution (“Spofa”) in dose of 35 mg/kg. 15 days later control animals were daily intraperitoneally administered with 0.3 ml of 0.9% NaCl solution, rats of the main group—with tetrapeptide Lys-Glu-Asp-Trp-NH2 [SEQ ID NO:1] in dose of 3 μg (in 0.3 ml of 0.9% NaCl) per rat during 11 days.

[7] = of 16 insulin-treated patients, 10 μg i.m. once a day for 10 days
[8] = tablets, patients treated with oral anti-diabetic medicine
[9] = 30 min after glucose administration
[10] = 60 min after glucose administration
[11] = 120 min after glucose administration

## NCCCC[C@H](N)C(=O)N[C@@H](CCC(=O)O)C(=O)N[C@@H](CC(=O)O)C(=O)N[C@@H](Cc1c[nH]c2ccccc12)C(N)=O [Lys-Glu-Asp-Trp-NH2, lysyl-glutamyl-aspartyl-tryptophane amid] (H-KEDW-NH2)
[1]
  toxicity: non-toxic
[2]; Case No. 1
  decrease of daily insulin dose as compared to the initial level: 26 units
[2]; Case No. 1, at discharge
  coagulogram indices: pronounced improvement
[2]; Case No. 1, at discharge, on admission 82 units
  Daily dose of insulin: 56 units
[2]; Case No. 1, type 2 diabetes, discharge on the 18th day, on admission 10 μmol/l
  blood glucose level on an empty stomach: 5.9 mM
[2]; Case No. 2
  decrease of daily insulin dose as compared to the initial level: 8 units
[2]; Case No. 2, at discharge, on admission 40 units
  Daily norm of insulin: 32 units
[2]; Case No. 2, type 1 diabetes, discharge on the 15th day, on admission 17.8 μmol/l
  blood glucose level on an empty stomach: 3.4 mM
[2]; Case No. 3
  reduction of the dose of diabeton: two-fold
[2]; Case No. 3, after the completion of the treatment course
  blood glucose level: remained within the norm
[2]; Case No. 3, type 2 diabetes, second day, 100 μg tablet twice a day with 2 diabeton tablets, on admission 11 μmol/l
  glucose level on an empty stomach: 6 mM
[2]; none in control group
  patients of the main group with decrease of insulin dose: 50%
[2]; [7]
  Decreased insulin dose necessary to achieve compensation, number of patients: 8
  Increased insulin dose necessary to achieve compensation, number of patients: 2
  The same insulin dose necessary to achieve compensation, number of patients: 6
[2]; on average, in 8 patients out of 16
  reduction of the insulin daily dose: 8 units
[2]; patients who received tetrapeptide in tablets daily
  reduction of the dose of insulin: 25 units
[2]; [8]
  compensation: full compensation
  reduction of the dose of oral anti-diabetic preparations: two-fold
[2]; the 1st patient
  insulin dose increase to achieve compensation: 4 units
[2]; the 2nd patient
  insulin dose increase to achieve compensation: 14 units
[3]; 30 minutes after insulin administration
  Decrease in glucose content with respect to initial level: 44.2%
[3]; 30 minutes after insulin administration (0.3 units i.v.)
  Glucose Concentration in blood: 123.6 ± 8.3 mg %
[3]; initial level, 28 days after course completion
  Glucose Concentration in blood: 221.5 ± 11.2 mg %
[3]; rat, in vivo
  decrease of the glucose level after insulin administration as compared to the control group: two-fold
[4]; 5 min after glucose administration
  glucose concentration compared to the initial level (100%): 142.9%
[4]; 5 min after glucose administration (1 ml of 2% i.v.)
  glucose concentration in blood, glucose tolerance test: 301.2 ± 10.5
[4]; [9]
  glucose concentration compared to the initial level (100%): 97.3%
  glucose concentration in blood, glucose tolerance test: 205.1 ± 11.8
[4]; [10]
  glucose concentration compared to the initial level (100%): 95.6%
  glucose concentration in blood, glucose tolerance test: 201.5 ± 13.2
[4]; [11]
  glucose concentration compared to the initial level (100%): 77.9%
  glucose concentration in blood, glucose tolerance test: 164.2 ± 12.8
[4]; initial level, 44 days after course completion
  glucose concentration in blood, glucose tolerance test: 210.8 ± 9.3
[5]; 1 mkg group, 7 days after alloxan administration
  Glucose Concentration in blood: 245.6 ± 12.3 mg %
[5]; 1 mkg group, 14 days after alloxan administration
  Glucose Concentration in blood: 261.7 ± 12.3 mg %
[5]; 1 mkg group, initial level
  Glucose Concentration in blood: 80.6 ± 2.8 mg %
[5]; 1 mkg per rat, 7 days, 1 day after tetrapeptide administration
  Glucose Concentration in blood: 228.3 ± 10.7 mg %
[5]; 1 mkg per rat, 4 days after tetrapeptide administration
  Glucose Concentration in blood: 244.4 ± 12.2 mg %
[5]; 1 mkg per rat, 7 days after tetrapeptide administration
  Glucose Concentration in blood: 269.4 ± 8.6 mg %
[5]; 1 mkg per rat, 14 days after tetrapeptide administration
  Glucose Concentration in blood: 268.8 ± 12.4 mg %
[5]; 1 mkg per rat, 21 days after tetrapeptide administration
  Glucose Concentration in blood: 272.5 ± 9.9 mg %
[5]; 10 mkg group, 7 days after alloxan administration
  Glucose Concentration in blood: 247.2 ± 14.0 mg %
[5]; 10 mkg group, 14 days after alloxan administration
  Glucose Concentration in blood: 252.2 ± 7.9 mg %
[5]; 10 mkg group, initial level
  Glucose Concentration in blood: 83.9 ± 3.4 mg %
[5]; 10 mkg per rat, 7 days, 1 day after tetrapeptide administration
  Glucose Concentration in blood: 193.3 ± 6.7 mg %
[5]; 10 mkg per rat, 4 days after tetrapeptide administration
  Glucose Concentration in blood: 212.2 ± 7.3 mg %
[5]; 10 mkg per rat, 7 days after tetrapeptide administration
  Glucose Concentration in blood: 205.6 ± 8.4 mg %
[5]; 10 mkg per rat, 14 days after tetrapeptide administration
  Glucose Concentration in blood: 240.0 ± 7.9 mg %
[5]; 10 mkg per rat, 21 days after tetrapeptide administration
  Glucose Concentration in blood: 248.3 ± 13.5 mg %
[5]; 1st day after completion of the course
  increase in the blood glucose level as compared to the controls: 17.3%
[5]; 4th day after completion of the course
  increase in the blood glucose level as compared to the controls: 12.3%
[5]; day 1
  decrease of glucose level: 30%
[5]; day 4
  decrease of glucose level: 23.8%
[5]; day 7
  decrease of glucose level: 26%
[5]; day 17
  decrease of glucose level: 12.7%
[6]; 70th day after alloxan administration (control 62.5%)
  animals alive: 70%
[6]; 1 day after the completion of tetrapeptide administration
  Insulin content in blood: 3.6 ± 0.7 mkIU/ml
[6]; 8 days of substance administration
  insulin content in the blood, higher than in the control group: 3.9 fold
[6]; 8 days since the onset of tetrapeptide administration, 3 μg per rat i.p. daily
  Insulin content in blood: 3.1 ± 1.1 mkIU/ml
[6]; 9 days after the completion of tetrapeptide administration
  Insulin content in blood: 3.2 ± 0.5 mkIU/ml
[6]; 15 days after alloxan administration, before peptide
  Insulin content in blood: 1.5 ± 0.4 mkIU/ml
[6]; 18 days after the completion of tetrapeptide administration
  Insulin content in blood: 4.3 ± 0.5 mkIU/ml
[6]; 28 days after the completion of tetrapeptide administration
  Insulin content in blood: 4.1 ± 0.6 mkIU/ml
[6]; 44 days after the completion of tetrapeptide administration
  Insulin content in blood: 3.9 ± 1.1 mkIU/ml
[6]; all the following estimations, no insulin in control animals
  amount of insulin in the blood: 13-18%
[6]; initial level
  Insulin content in blood: 23.8 ± 2.8 mkIU/ml

— patent publication US7491703B2, “Tetrapeptide regulating blood glucose level in diabetes mellitus” (“Access Bioscience” CJSC, priority 2003, dated 2009)
